Structures can show the parent of a compound that is named as a salt.
Legend:
NLRP3 [1] = target: T1, NLRP3 (Homo sapiens, UniProt Q96P20); assay: Human whole blood IL1β release assay; format: cell-based; design: Human whole blood in Li-heparin tubes was obtained from healthy donors; from tissue; host or cells: human whole blood from healthy donors, LPS-primed, nigericin-stimulated; settings: human whole blood, 1 μg/ml LPS, compound 3 hrs, nigericin 10 μM 1 hr, IL-1β AlphaLisa; read-out: HWB IC50
T1 sequence (Q96P20 whole entry): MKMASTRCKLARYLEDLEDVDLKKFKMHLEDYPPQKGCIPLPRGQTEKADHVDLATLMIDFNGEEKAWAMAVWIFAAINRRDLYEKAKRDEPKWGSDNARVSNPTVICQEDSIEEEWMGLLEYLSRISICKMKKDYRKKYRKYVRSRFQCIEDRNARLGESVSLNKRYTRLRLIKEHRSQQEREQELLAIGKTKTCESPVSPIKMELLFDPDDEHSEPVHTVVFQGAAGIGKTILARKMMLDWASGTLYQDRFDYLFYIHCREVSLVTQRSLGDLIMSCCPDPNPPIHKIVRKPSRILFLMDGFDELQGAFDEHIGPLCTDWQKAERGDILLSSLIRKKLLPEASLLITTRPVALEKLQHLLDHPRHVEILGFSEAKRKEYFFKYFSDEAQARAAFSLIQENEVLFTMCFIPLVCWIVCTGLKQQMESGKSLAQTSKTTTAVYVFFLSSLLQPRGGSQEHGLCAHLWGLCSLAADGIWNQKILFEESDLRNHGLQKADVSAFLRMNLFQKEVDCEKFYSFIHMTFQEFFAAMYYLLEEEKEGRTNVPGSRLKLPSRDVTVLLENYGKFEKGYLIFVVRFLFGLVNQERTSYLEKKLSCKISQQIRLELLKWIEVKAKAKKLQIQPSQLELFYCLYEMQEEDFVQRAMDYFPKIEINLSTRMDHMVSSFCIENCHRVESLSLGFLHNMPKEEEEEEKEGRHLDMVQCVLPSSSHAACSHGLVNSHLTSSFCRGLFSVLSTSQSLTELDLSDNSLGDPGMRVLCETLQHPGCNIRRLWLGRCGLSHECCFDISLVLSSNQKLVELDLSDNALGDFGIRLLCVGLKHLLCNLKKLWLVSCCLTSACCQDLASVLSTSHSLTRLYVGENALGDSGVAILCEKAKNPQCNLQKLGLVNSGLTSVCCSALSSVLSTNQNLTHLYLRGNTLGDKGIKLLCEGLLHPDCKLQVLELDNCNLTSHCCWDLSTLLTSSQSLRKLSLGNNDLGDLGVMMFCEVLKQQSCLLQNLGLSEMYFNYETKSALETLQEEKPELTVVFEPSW
Experimental: Human Whole Blood IL1β Release Assay
For systemic delivery, the ability to inhibit NLRP3 when the compounds are present within the bloodstream is of great importance. For this reason, the NLRP3 inhibitory activity of a number of compounds in human whole blood was investigated in accordance with the following protocol.
Human whole blood in Li-heparin tubes was obtained from healthy donors from a volunteer donor panel. • 1. Plate out 80 μl of whole blood containing 1 μg/ml of LPS in 96-well, clear bottom cell culture plate (Corning #3585) • 2. Add 10 μl compound (8 points half-log dilution with 10 μM top dose) or vehicle (DMSO 0.1% FAC) to the appropriate wells • 3. Incubate for 3 hrs at 37° C., 5% CO2 • 4. Add 10 μl Nigericin (Sigma #N7143) (10 μM FAC) to all wells • 5. Incubate for 1 hr at 37° C., 5% CO2 • 6. At the end of the incubation period, spin plates at 300 xg for 5 mins to pellet cells and remove 20 μl of supernatant and add to 96-well v-bottom plates for IL-1β analysis (note: these plates containing the supernatants can be stored at −80° C. to be analysed at a later date) • 7. IL-1β was measured according to the manufacturer protocol (Perkin Elmer-AlphaLisa IL-1 Kit AL220F-5000) • 8. IC50 data is fitted to a non-linear regression equation (log inhibitor vs response-variable slope 4-parameters)

NLRP3 [2] = target: T1, NLRP3; assay: THP-1 cells pyroptosis assay; format: cell-based; design: Seed THP-1 cells (25,000 cells/well) containing 1.0 μg/ml LPS; host or cells: THP-1 cells, LPS-primed, nigericin-stimulated; settings: THP-1 cells, 1.0 μg/ml LPS, compound 3 hrs, nigericin 5 μM 1 hr, resazurin readout; read-out: THP IC50
Text: NLRP and Pyroptosis It is well established that the activation of NLRP3 leads to cell pyroptosis and this feature plays an important part in the manifestation of clinical disease (Yan-gang Liu et al., Cell Death &Disease, 2017, 8(2), e2579; Alexander Wree et al., Hepatology, 2014, 59(3), 898-910; Alex Baldwin et al., Journal of Medicinal Chemistry, 2016, 59(5), 1691-171; Ema Ozaki et al., Journal of Inflammation Research, 2015, 8, 15-27; Zhen Xie & Gang Zhao, Neuroimmunology Neuroinflammation, 2014, 1(2), 60-65; Mattia Cocco et al., Journal of Medicinal Chemistry, 2014, 57(24), 10366-10382; T. Satoh et al., Cell Death &Disease, 2013, 4, e644). Therefore, it is anticipated that inhibitors of NLRP3 will block pyroptosis, as well as the release of pro-inflammatory cytokines (e.g. […]) from the cell. THP-1 Cells: Culture and Preparation THP-1 cells (ATCC #TIB-202) were grown in RPMI containing L-glutamine (Gibco #11835) supplemented with imM sodium pyruvate (Sigma #S8636) and penicillin (100 units/ml)/streptomycin (0.1 mg/ml) (Sigma #P4333) in 10% Fetal Bovine Serum (FBS) (Sigma #Fo804). The cells were routinely passaged and grown to confluency (˜10^6 cells/ml). On the day of the experiment, THP-1 cells were harvested and resuspended into RPMI medium (without FBS). The cells were then counted and viability (>90%) checked by Trypan blue (Sigma #T8154). Appropriate dilutions were made to give a concentration of 625,000 cells/ml. To this diluted cell solution was added LPS (Sigma #L4524) to give a […] Final Assay Concentration (FAC). 40 μl of the final preparation was aliquoted into each well of a 96-well plate. The plate thus prepared was used for compound screening. THP-1 Cells Pyroptosis Assay The following method step-by-step assay was followed for compound screening. • 1. Seed THP-1 cells (25,000 cells/well) containing 1.0 μg/ml LPS in 40 μl of RPMI medium (without FBS) in 96-well, black walled, clear bottom cell culture plates coated with poly-D-lysine (VWR #734-0317) • 2. Add […] compound (8 points half-log dilution, with 10 μM top dose) or vehicle (DMSO 0.1% FAC) to the appropriate wells • 3. […] Add 5 μl nigericin (Sigma #N7143) (FAC 5 μM) to all wells • 5. […] At the end of the incubation period, spin plates at 300 xg for 3 mins and remove supernatant • 7. Then add 50 μl of resazurin (Sigma #R7017) (FAC 100μ M resazurin in RPMI medium without FBS) and incubate plates for a further 1-2 hrs at 37° C. and 5% CO2 • 8. Plates were read in an Envision reader at Ex 560 nm and Em 590 nm • 9. IC50 data is fitted to a non-linear regression equation (log inhibitor vs response-variable slope 4-parameters) [table]

| Compound | IC50 (NLRP3 [1]) [nM] | IC50 (NLRP3 [2]) [nM] |
| --- | --- | --- |
| CN1CC(Cn2ccc(S(=O)(=O)NC(=O)Nc3c4c(cc5c3CCC5)CCC4)n2)C1 [Example 19, N-((1,2,3,5,6,7-Hexahydro-s-indacen-4-yl)carbamoyl)-1-((1-methylazetidin-3-yl)methyl)-1H-pyrazole-3-sulfonamide] | < 3200 | < 640 |
| CN(C)CCn1cnc(S(=O)(=O)NC(=O)Nc2c3c(cc4c2CCC4)CCC3)c1 [Example 23, 1-(2-(Dimethylamino)ethyl)-N-((1,2,3,5,6,7-hexahydro-s-indacen-4-yl)carbamoyl)-1H-imidazole-4-sulfonamide] | < 3200 | < 2560 |
| CN(C)CCn1cc(S(=O)(=O)NC(=O)Nc2c3c(cc4c2CCC4)CCC3)nn1 [Example 25, 1-(2-(Dimethylamino)ethyl)-N-((1,2,3,5,6,7-hexahydro-s-indacen-4-yl)carbamoyl)-1H-1,2,3-triazole-4-sulfonamide, sodium salt] | < 3200 | < 640 |
| CN(C)CCn1ccc(S(=O)(=O)NC(=O)Nc2c(-c3cccnc3)cc(F)c3c2CCC3)n1 [Example 28, 1-(2-(Dimethylamino)ethyl)-N-((7-fluoro-5-(pyridin-3-yl)-2,3-dihydro-1H-inden-4-yl)carbamoyl)-1H-pyrazole-3-sulfonamide] | < 3200 | < 640 |
| CC(C)(C#N)n1ccc(S(=O)(=O)NC(=O)Nc2c3c(cc4c2CCC4)CCC3)n1 [Example 33, 1-(2-Cyanopropan-2-yl)-N-((1,2,3,5,6,7-hexahydro-s-indacen-4-yl)carbamoyl)-1H-pyrazole-3-sulfonamide] | < 1600 | < 160 |
| N#CCn1ccc(S(=O)(=O)NC(=O)Nc2c3c(cc4c2CCC4)CCC3)n1 [Example 34, 1-(Cyanomethyl)-N-((1,2,3,5,6,7-hexahydro-s-indacen-4-yl)carbamoyl)-1H-pyrazole-3-sulfonamide] | < 3200 | < 640 |
| O=C(Nc1c2c(cc3c1CCC3)CCC2)NS(=O)(=O)c1ccn(Cc2ncco2)n1 [Example 35, N-((1,2,3,5,6,7-Hexahydro-s-indacen-4-yl)carbamoyl)-1-(oxazol-2-ylmethyl)-1H-pyrazole-3-sulfonamide] | < 10000 | < 160 |
| CN(C)C1(c2cc(S(=O)(=O)NC(=O)Nc3c4c(cc5c3CCC5)CCC4)nn2C)COC1 [Example 122, 5-(3-(Dimethylamino)oxetan-3-yl)-N-((1,2,3,5,6,7-hexahydro-s-indacen-4-yl)carbamoyl)-1-methyl-1H-pyrazole-3-sulfonamide] | < 1600 | < 640 |
| COCCN(C)Cc1cc(S(=O)(=O)NC(=O)Nc2c3c(cc4c2CCC4)CCC3)nn1C [Example 126, N-((1,2,3,5,6,7-Hexahydro-s-indacen-4-yl)carbamoyl)-5-(((2-methoxyethyl)(methyl)amino)methyl)-1-methyl-1H-pyrazole-3-sulfonamide, sodium salt] | < 3200 | < 640 |
| CNC(=O)c1cc(S(=O)(=O)NC(=O)Nc2c(C(C)C)cc(Cl)cc2C(C)C)nn1C [Example 132, 3-(N-((4-chloro-2,6-diisopropylphenyl)carbamoyl)sulfamoyl)-N,1-dimethyl-1H-pyrazole-5-carboxamide] | < 3200 | < 640 |
| CC(C)c1cccc(C(C)C)c1NC(=O)NS(=O)(=O)c1cc(C(=O)N(C)C2CC2)n(C)n1 [Example 143, N-Cyclopropyl-3-(N-((2,6-diisopropylphenyl)carbamoyl)sulfamoyl)-N,1-dimethyl-1H-pyrazole-5-carboxamide] | < 1600 | < 160 |

Next, values leading:

| IC50 (NLRP3 [1]) [nM] | IC50 (NLRP3 [2]) [nM] | Compound |
| --- | --- | --- |
| < 800 | < 160 | C[C@@H](Cn1ccc(S(=O)(=O)NC(=O)Nc2c3c(cc4c2CCC4)CCC3)n1)N(C)C [Example 18, (S)-1-(2-(Dimethylamino)propyl)-N-((1,2,3,5,6,7-hexahydro-s-indacen-4-yl)carbamoyl)-1H-pyrazole-3-sulfonamide] |
| < 800 | < 640 | CN1CCC[C@@H]1Cn1ccc(S(=O)(=O)NC(=O)Nc2c3c(cc4c2CCC4)CCC3)n1 [Example 21, (R)—N-((1,2,3,5,6,7-Hexahydro-s-indacen-4-yl)carbamoyl)-1-((1-methylpyrrolidin-2-yl)methyl)-1H-pyrazole-3-sulfonamide] |
| < 400 | < 160 | COc1cc(-c2ccc3c(c2NC(=O)NS(=O)(=O)c2ccn(CCN(C)C)n2)CCC3)ccn1 [Example 26, 1-(2-(Dimethylamino)ethyl)-N-((5-(2-methoxypyridin-4-yl)-2,3-dihydro-1H-inden-4-yl)carbamoyl)-1H-pyrazole-3-sulfonamide] |
| < 800 | < 640 | CN(C)CCn1cnc(S(=O)(=O)NC(=O)Nc2c3c(cc4c2CCC4)CCC3)n1 [Example 27, 1-(2-(Dimethylamino)ethyl)-N-((1,2,3,5,6,7-hexahydro-s-indacen-4-yl)carbamoyl)-1H-1,2,4-triazole-3-sulfonamide] |
| < 400 | < 40 | COc1cc(-c2cc(F)c3c(c2NC(=O)NS(=O)(=O)c2ccn(CCN(C)C)n2)CCC3)ccn1 [Example 29, 1-(2-(Dimethylamino)ethyl)-N-((7-fluoro-5-(2-methoxypyridin-4-yl)-2,3-dihydro-1H-inden-4-yl)carbamoyl)-1H-pyrazole-3-sulfonamide] |
| < 800 | < 640 | CC(C)c1cc(F)cc(-c2cccnc2)c1NC(=O)NS(=O)(=O)c1ccn(CCN(C)C)n1 [Example 30, 1-(2-(Dimethylamino)ethyl)-N-((4-fluoro-2-isopropyl-6-(pyridin-3-yl)phenyl)carbamoyl)-1H-pyrazole-3-sulfonamide] |
| < 800 | < 40 | Cn1ccnc1Cn1ccc(S(=O)(=O)NC(=O)Nc2c3c(cc4c2CCC4)CCC3)n1 [Example 118, N-((1,2,3,5,6,7-Hexahydro-s-indacen-4-yl)carbamoyl)-1-((1-methyl-1H-imidazol-2-yl)methyl)-1H-pyrazole-3-sulfonamide] |
| < 800 | < 160 | CC(=O)N(C)Cc1cc(S(=O)(=O)NC(=O)Nc2c3c(cc4c2CCC4)CCC3)nn1C(C)C [Example 129, N-((3-(N-((1,2,3,5,6,7-Hexahydro-s-indacen-4-yl)carbamoyl)sulfamoyl)-1-isopropyl-1H-pyrazol-5-yl)methyl)-N-methylacetamide] |
| < 1600 | < 2560 | CC(C)c1cccc(C(C)C)c1NC(=O)NS(=O)(=O)c1cc(C(=O)N2CC(F)C2)n(C)n1 [Example 139, N-((2,6-Diisopropylphenyl)carbamoyl)-5-(3-fluoroazetidine-1-carbonyl)-1-methyl-1H-pyrazole-3-sulfonamide, sodium salt] |
